# Measured values from ChEMBL document CHEMBL3885881, “DrugMatrix”.
# Organism: Rattus norvegicus
# Experiment: DrugMatrix - Regimen: Daily Repeat
# Type: toxicity, organism-based, Sprague-Dawley
# Parameters: regimen Daily Repeat, gender Male, age 6-8 weeks
# Details: in vivo, po, route oral GAVAGE, vehicle 100 % WATER; for ABSOLUTE BASOPHIL / ABSOLUTE EOSINOPHIL / ABSOLUTE LYMPHOCYTE / ABSOLUTE MONOCYTE / ABSOLUTE SEGMENTED NEUTROPHIL / BASOPHIL / EOSINOPHIL / ERYTHROCYTE COUNT / HEMATOCRIT / HEMOGLOBIN / LEUKOCYTE COUNT / LYMPHOCYTE / MEAN CORPUSCULAR HEMOGLOBIN / MEAN CORPUSCULAR HEMOGLOBIN CONCENTRATION / MEAN CORPUSCULAR VOLUME / MONOCYTE / NEUTROPHIL / NUCLEATED RED BLOOD CELLS / PLATELET COUNT: tissue Blood; for ALANINE AMINOTRANSFERASE / ALBUMIN / ALKALINE PHOSPHATASE / ASPARTATE AMINOTRANSFERASE / BLOOD UREA NITROGEN / CARBON DIOXIDE / CHLORIDE / CHOLESTEROL / CREATINE PHOSPHOKINASE / CREATININE / GLUCOSE / LACTATE DEHYDROGENASE / LIPASE / PHOSPHORUS / POTASSIUM / SODIUM / TOTAL BILIRUBIN / TOTAL PROTEIN / URIC ACID: tissue Plasma
# [1] = 30 mg/kg, 72 h, dose level Low, time 3 day
# [2] = 30 mg/kg, 120 h, dose level Low, time 5 day
# [3] = 1000 mg/kg, 72 h, dose level High, time 3 day
# [4] = 1000 mg/kg, 120 h, dose level High, time 5 day
smiles,measurement,setting,value
CCCCc1nc(Cl)c(CO)n1Cc1ccc(-c2ccccc2-c2nn[nH]n2)cc1 [LOSARTAN],ABSOLUTE BASOPHIL,[1],0 CELLS/uL
same,ABSOLUTE EOSINOPHIL,[1],0 CELLS/uL
same,ABSOLUTE LYMPHOCYTE,[1],14016.67 CELLS/uL
same,ABSOLUTE MONOCYTE,[1],389.33 CELLS/uL
same,ABSOLUTE SEGMENTED NEUTROPHIL,[1],894 CELLS/uL
same,BASOPHIL,[1],0%
same,EOSINOPHIL,[1],0%
same,ERYTHROCYTE COUNT,[1],5.45 x10E6/uL
same,HEMATOCRIT,[1],35.03%
same,HEMOGLOBIN,[1],13.17 G/DL
same,LEUKOCYTE COUNT,[1],15.3 x10E3/uL
same,LYMPHOCYTE,[1],91.33%
same,MEAN CORPUSCULAR HEMOGLOBIN,[1],24.17 pg
same,MEAN CORPUSCULAR HEMOGLOBIN CONCENTRATION,[1],37.6 G/DL
same,MEAN CORPUSCULAR VOLUME,[1],64.2 fL
same,MONOCYTE,[1],2.67%
same,NEUTROPHIL,[1],6%
same,NUCLEATED RED BLOOD CELLS,[1],0 /100WBC
same,PLATELET COUNT,[1],1281.67 x10E3/uL
same,ALANINE AMINOTRANSFERASE,[1],42 u/L
same,ALBUMIN,[1],4.4 G/DL
same,ALKALINE PHOSPHATASE,[1],318.67 u/L
same,ASPARTATE AMINOTRANSFERASE,[1],77.33 u/L
same,BLOOD UREA NITROGEN,[1],20 mg/dL
same,CARBON DIOXIDE,[1],25 mmol/L
same,CHLORIDE,[1],103 MEQ/L
same,CHOLESTEROL,[1],78 mg/dL
same,CREATINE PHOSPHOKINASE,[1],190.67 u/L
same,CREATININE,[1],0.23 mg/dL
same,GLUCOSE,[1],178 mg/dL
same,LACTATE DEHYDROGENASE,[1],89.33 u/L
same,LIPASE,[1],9.33 u/L
same,PHOSPHORUS,[1],13.6 mg/dL
same,POTASSIUM,[1],7.08 MEQ/L
same,SODIUM,[1],145.07 MEQ/L
same,TOTAL BILIRUBIN,[1],0.17 mg/dL
same,TOTAL PROTEIN,[1],6.1 G/DL
same,URIC ACID,[1],2.83 mg/dL
same,ABSOLUTE BASOPHIL,[2],0 CELLS/uL
same,ABSOLUTE EOSINOPHIL,[2],152.67 CELLS/uL
same,ABSOLUTE LYMPHOCYTE,[2],13450.67 CELLS/uL
same,ABSOLUTE MONOCYTE,[2],299.67 CELLS/uL
same,ABSOLUTE SEGMENTED NEUTROPHIL,[2],963.67 CELLS/uL
same,BASOPHIL,[2],0%
same,EOSINOPHIL,[2],1.33%
same,ERYTHROCYTE COUNT,[2],5.55 x10E6/uL
same,HEMATOCRIT,[2],35.3%
same,HEMOGLOBIN,[2],13.53 G/DL
same,LEUKOCYTE COUNT,[2],14.87 x10E3/uL
same,LYMPHOCYTE,[2],90%
same,MEAN CORPUSCULAR HEMOGLOBIN,[2],24.37 pg
same,MEAN CORPUSCULAR HEMOGLOBIN CONCENTRATION,[2],38.33 G/DL
same,MEAN CORPUSCULAR VOLUME,[2],63.6 fL
same,MONOCYTE,[2],2%
same,NEUTROPHIL,[2],6.67%
same,NUCLEATED RED BLOOD CELLS,[2],0.33 /100WBC
same,PLATELET COUNT,[2],1227.33 x10E3/uL
same,ALANINE AMINOTRANSFERASE,[2],55 u/L
same,ALBUMIN,[2],4.43 G/DL
same,ALKALINE PHOSPHATASE,[2],365.33 u/L
same,ASPARTATE AMINOTRANSFERASE,[2],83.67 u/L
same,BLOOD UREA NITROGEN,[2],26 mg/dL
same,CARBON DIOXIDE,[2],23.67 mmol/L
same,CHLORIDE,[2],109 MEQ/L
same,CHOLESTEROL,[2],82 mg/dL
same,CREATINE PHOSPHOKINASE,[2],302.33 u/L
same,CREATININE,[2],0.19 mg/dL
same,GLUCOSE,[2],156.67 mg/dL
same,LACTATE DEHYDROGENASE,[2],189 u/L
same,LIPASE,[2],9.5 u/L
same,PHOSPHORUS,[2],12.1 mg/dL
same,POTASSIUM,[2],6.02 MEQ/L
same,SODIUM,[2],144.45 MEQ/L
same,TOTAL BILIRUBIN,[2],0.0667 mg/dL
same,TOTAL PROTEIN,[2],6.2 G/DL
same,URIC ACID,[2],1.5 mg/dL
same,ABSOLUTE BASOPHIL,[3],0 CELLS/uL
same,ABSOLUTE EOSINOPHIL,[3],0 CELLS/uL
same,ABSOLUTE LYMPHOCYTE,[3],16308 CELLS/uL
same,ABSOLUTE MONOCYTE,[3],476 CELLS/uL
same,ABSOLUTE SEGMENTED NEUTROPHIL,[3],949.33 CELLS/uL
same,BASOPHIL,[3],0%
same,EOSINOPHIL,[3],0%
same,ERYTHROCYTE COUNT,[3],5.24 x10E6/uL
same,HEMATOCRIT,[3],33.6%
same,HEMOGLOBIN,[3],12.73 G/DL
same,LEUKOCYTE COUNT,[3],17.73 x10E3/uL
same,LYMPHOCYTE,[3],92.33%
same,MEAN CORPUSCULAR HEMOGLOBIN,[3],24.3 pg
same,MEAN CORPUSCULAR HEMOGLOBIN CONCENTRATION,[3],37.9 G/DL
same,MEAN CORPUSCULAR VOLUME,[3],64.13 fL
same,MONOCYTE,[3],2.67%
same,NEUTROPHIL,[3],5%
same,NUCLEATED RED BLOOD CELLS,[3],0 /100WBC
same,PLATELET COUNT,[3],1384.67 x10E3/uL
same,ALANINE AMINOTRANSFERASE,[3],41.67 u/L
same,ALBUMIN,[3],4.4 G/DL
same,ALKALINE PHOSPHATASE,[3],365.67 u/L
same,ASPARTATE AMINOTRANSFERASE,[3],77.33 u/L
same,BLOOD UREA NITROGEN,[3],39.33 mg/dL
same,CARBON DIOXIDE,[3],21.67 mmol/L
same,CHLORIDE,[3],106.33 MEQ/L
same,CHOLESTEROL,[3],96 mg/dL
same,CREATINE PHOSPHOKINASE,[3],290.67 u/L
same,CREATININE,[3],0.26 mg/dL
same,GLUCOSE,[3],165.33 mg/dL
same,LACTATE DEHYDROGENASE,[3],296 u/L
same,LIPASE,[3],10 u/L
same,PHOSPHORUS,[3],12.6 mg/dL
same,POTASSIUM,[3],6.89 MEQ/L
same,SODIUM,[3],144.3 MEQ/L
same,TOTAL BILIRUBIN,[3],0.2 mg/dL
same,TOTAL PROTEIN,[3],5.93 G/DL
same,URIC ACID,[3],1.73 mg/dL
same,ABSOLUTE BASOPHIL,[4],0 CELLS/uL
same,ABSOLUTE EOSINOPHIL,[4],186 CELLS/uL
same,ABSOLUTE LYMPHOCYTE,[4],17950.67 CELLS/uL
same,ABSOLUTE MONOCYTE,[4],194 CELLS/uL
same,ABSOLUTE SEGMENTED NEUTROPHIL,[4],1069.33 CELLS/uL
same,BASOPHIL,[4],0%
same,EOSINOPHIL,[4],1%
same,ERYTHROCYTE COUNT,[4],5.34 x10E6/uL
same,HEMATOCRIT,[4],32.67%
same,HEMOGLOBIN,[4],12.67 G/DL
same,LEUKOCYTE COUNT,[4],19.4 x10E3/uL
same,LYMPHOCYTE,[4],92.67%
same,MEAN CORPUSCULAR HEMOGLOBIN,[4],23.73 pg
same,MEAN CORPUSCULAR HEMOGLOBIN CONCENTRATION,[4],38.77 G/DL
same,MEAN CORPUSCULAR VOLUME,[4],61.27 fL
same,MONOCYTE,[4],1%
same,NEUTROPHIL,[4],5.33%
same,NUCLEATED RED BLOOD CELLS,[4],0 /100WBC
same,PLATELET COUNT,[4],1450.33 x10E3/uL
same,ALANINE AMINOTRANSFERASE,[4],48.67 u/L
same,ALBUMIN,[4],4.4 G/DL
same,ALKALINE PHOSPHATASE,[4],418.33 u/L
same,ASPARTATE AMINOTRANSFERASE,[4],72 u/L
same,BLOOD UREA NITROGEN,[4],59.67 mg/dL
same,CARBON DIOXIDE,[4],24.33 mmol/L
same,CHLORIDE,[4],110.67 MEQ/L
same,CHOLESTEROL,[4],80.67 mg/dL
same,CREATINE PHOSPHOKINASE,[4],480.33 u/L
same,CREATININE,[4],0.37 mg/dL
same,GLUCOSE,[4],175.33 mg/dL
same,LACTATE DEHYDROGENASE,[4],59.33 u/L
same,LIPASE,[4],9 u/L
same,PHOSPHORUS,[4],11.37 mg/dL
same,POTASSIUM,[4],7.02 MEQ/L
same,SODIUM,[4],146.03 MEQ/L
same,TOTAL BILIRUBIN,[4],0.13 mg/dL
same,TOTAL PROTEIN,[4],5.9 G/DL
same,URIC ACID,[4],1.83 mg/dL
